Key:
[1] = target: TYK2 (Homo sapiens (Human), UniProt P29597); experiment: JAK kinase assay (KINASE-GLO luminescent), TYK2 enzyme; type: biochemical; settings: TYK2 enzyme 10 nM, Abl peptide substrate
Outline: (§1)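 Kinase-Glo luminescence measures ATP remaining after 75 min at room temperature; ATP 2 μM in 4× stock. 11-point 1:5 dilutions, 2.5% DMSO final. Percent of DMSO control per concentration, IC50 by 4-parameter logistic fit.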

[2] = target: JAK1 (Homo sapiens (Human), UniProt P23458); experiment: JAK kinase assay (KINASE-GLO luminescent), JAK1 enzyme; type: biochemical; settings: JAK1 enzyme 10 nM, Abl peptide substrate
JAK1, sequence (P23458 whole entry, species assumed): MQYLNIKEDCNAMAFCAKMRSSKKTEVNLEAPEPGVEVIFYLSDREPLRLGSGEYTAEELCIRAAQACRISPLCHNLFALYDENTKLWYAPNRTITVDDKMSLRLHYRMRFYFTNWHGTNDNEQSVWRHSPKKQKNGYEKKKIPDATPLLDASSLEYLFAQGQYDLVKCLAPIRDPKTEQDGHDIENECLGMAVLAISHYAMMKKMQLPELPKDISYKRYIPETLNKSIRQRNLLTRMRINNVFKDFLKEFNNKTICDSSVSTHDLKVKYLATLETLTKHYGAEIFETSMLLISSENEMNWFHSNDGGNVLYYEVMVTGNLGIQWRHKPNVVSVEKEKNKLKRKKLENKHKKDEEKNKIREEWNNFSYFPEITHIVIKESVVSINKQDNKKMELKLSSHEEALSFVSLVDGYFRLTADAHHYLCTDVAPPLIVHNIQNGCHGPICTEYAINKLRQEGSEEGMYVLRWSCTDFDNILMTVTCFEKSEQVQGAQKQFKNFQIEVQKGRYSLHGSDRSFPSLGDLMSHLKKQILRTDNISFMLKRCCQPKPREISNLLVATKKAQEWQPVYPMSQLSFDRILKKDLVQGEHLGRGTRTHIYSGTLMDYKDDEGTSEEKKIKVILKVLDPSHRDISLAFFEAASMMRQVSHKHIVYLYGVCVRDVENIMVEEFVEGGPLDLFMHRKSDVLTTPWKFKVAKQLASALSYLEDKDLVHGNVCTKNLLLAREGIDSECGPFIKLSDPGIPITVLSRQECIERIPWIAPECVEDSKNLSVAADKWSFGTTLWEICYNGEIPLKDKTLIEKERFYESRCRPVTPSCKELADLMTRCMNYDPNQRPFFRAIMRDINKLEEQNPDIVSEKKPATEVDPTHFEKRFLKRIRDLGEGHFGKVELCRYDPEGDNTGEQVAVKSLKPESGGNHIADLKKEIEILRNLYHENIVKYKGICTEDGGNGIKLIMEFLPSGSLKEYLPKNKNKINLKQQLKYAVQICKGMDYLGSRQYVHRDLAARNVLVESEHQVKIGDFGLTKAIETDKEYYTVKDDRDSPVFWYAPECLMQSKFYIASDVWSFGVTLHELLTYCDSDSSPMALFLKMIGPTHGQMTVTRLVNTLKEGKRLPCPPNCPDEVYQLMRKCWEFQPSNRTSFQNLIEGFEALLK
Outline: as §1

TYK2, sequence (P29597 whole entry, species assumed): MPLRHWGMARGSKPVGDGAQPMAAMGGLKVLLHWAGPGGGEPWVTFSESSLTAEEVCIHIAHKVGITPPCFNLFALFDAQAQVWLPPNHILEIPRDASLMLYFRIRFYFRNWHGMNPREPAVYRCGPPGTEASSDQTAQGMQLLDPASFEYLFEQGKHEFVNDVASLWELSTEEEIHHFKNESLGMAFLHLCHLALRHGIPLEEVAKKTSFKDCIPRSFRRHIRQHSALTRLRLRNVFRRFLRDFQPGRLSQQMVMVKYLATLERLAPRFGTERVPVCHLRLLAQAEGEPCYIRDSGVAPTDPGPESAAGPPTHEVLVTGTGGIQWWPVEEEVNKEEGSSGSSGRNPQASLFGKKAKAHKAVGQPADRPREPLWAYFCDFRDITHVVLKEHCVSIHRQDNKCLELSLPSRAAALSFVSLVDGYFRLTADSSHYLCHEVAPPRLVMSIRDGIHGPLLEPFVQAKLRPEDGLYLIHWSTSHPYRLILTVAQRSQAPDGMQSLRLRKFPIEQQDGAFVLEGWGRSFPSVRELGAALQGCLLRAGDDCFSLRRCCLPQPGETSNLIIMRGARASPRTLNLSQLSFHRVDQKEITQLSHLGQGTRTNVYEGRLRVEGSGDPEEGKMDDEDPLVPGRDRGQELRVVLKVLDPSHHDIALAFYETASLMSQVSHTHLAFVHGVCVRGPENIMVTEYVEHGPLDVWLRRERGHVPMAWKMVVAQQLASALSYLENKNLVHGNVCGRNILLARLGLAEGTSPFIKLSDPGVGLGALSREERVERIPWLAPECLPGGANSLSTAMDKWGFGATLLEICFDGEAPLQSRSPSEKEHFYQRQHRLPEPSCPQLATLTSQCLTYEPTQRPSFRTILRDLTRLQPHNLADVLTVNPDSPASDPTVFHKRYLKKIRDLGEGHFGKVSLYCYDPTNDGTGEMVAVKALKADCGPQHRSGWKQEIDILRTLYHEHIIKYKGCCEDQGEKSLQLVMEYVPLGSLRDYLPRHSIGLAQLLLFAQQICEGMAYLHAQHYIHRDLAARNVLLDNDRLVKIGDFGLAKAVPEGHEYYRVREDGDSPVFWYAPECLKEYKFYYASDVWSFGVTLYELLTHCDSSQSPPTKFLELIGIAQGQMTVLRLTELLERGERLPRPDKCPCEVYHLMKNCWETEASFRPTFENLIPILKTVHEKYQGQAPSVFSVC

Row | IC50 [1] | IC50 [2] | Structure (SMILES)
1 | < 10 nM | < 20 nM | Cc1cnc(Nc2ccccc2)nc1N1CC(CC#N)(N2CCN3CCCC[C@H]3C2)C1 [E216-F]
2 | < 10 nM | < 10 nM | CCN1CCN(C2(CC#N)CN(c3nc(Nc4cc(C)ns4)ncc3C)C2)CC1 [E52]
3 | < 10 nM | < 50 nM | Cc1cnc(Nc2ccc(N3CCN(C)CC3)cc2)nc1N1CC(CC#N)(N(C)C2CC2)C1 [E213]
4 | < 10 nM | < 10 nM | COCCN1CCN(C2(CC#N)CN(c3nc(Nc4cc(C)ns4)ncc3C)C2)CC1 [E75]
5 | < 50 nM | < 100 nM | Cc1cc(Nc2ncc(C)c(N3CC(CC#N)(N4CC5CN(C)CC5C4)C3)n2)sn1 (stereo not shown) [E105a]
6 | < 10 nM | < 10 nM | COC1CCN(C2(CC#N)CN(c3nc(Nc4cc(C)ns4)ncc3C)C2)CC1 [E69a]
7 | < 10 nM | < 10 nM | Cc1cnc(Nc2cnn(C)c2)nc1N1CC(CC#N)(N2CCN3CC(F)(F)C[C@H]3C2)C1 [E157a]
8 | < 50 nM | < 50 nM | Cc1cc(Nc2ncc(C)c(N3CC(CC#N)(N4CCN(C(C)C)CC4)C3)n2)sn1 [E55]
9 | < 10 nM | < 10 nM | Cc1cnc(Nc2ccc3c(c2)CN(C)C3)nc1N1CC(CC#N)(N2CCN3C[C@H](F)C[C@H]3C2)C1 [E216]
10 | < 10 nM | < 10 nM | Cc1cc(Nc2ncc(C)c(N3CC(CC#N)(N4CCN(C5CC5)CC4)C3)n2)sn1 [E54]
11 | < 100 nM | < 100 nM | Cc1cnc(Nc2cnn(C)c2)nc1N1CC(CC#N)(N2CC3(C2)CC(F)(F)CO3)C1 [E172a]
12 | < 10 nM | < 50 nM | Cc1cnc(Nc2ccc(N3CCOCC3)c(F)c2)nc1N1CC(CCC#N)C1 [E216-K]
13 | < 120 nM | < 120 nM | COCCN1CCN(C2(CC#N)CN(c3nc(Nc4cnn(CCOC)c4)ncc3C)C2)CC1 [E175-D]
14 | < 10 nM | < 10 nM | Cc1cnc(Nc2ccc3c(c2)CN(C)C3)nc1N1CC(CC#N)(N2CCC3(CC2)CC3(F)F)C1 [E113]
15 | < 50 nM | < 50 nM | Cc1cnc(Nc2cnn(C)c2)nc1N1CC(CC#N)(N2CCN3CCC[C@H]3C2)C1 [E162a]
16 | < 50 nM | < 100 nM | Cc1cc(Nc2ncc(C)c(N3CC(CC#N)(N4CCN5CCC[C@]5(C)C4)C3)n2)sn1 [E83a]
17 | < 10 nM | < 10 nM | Cc1cc(Nc2ncc(C)c(N3CC(CC#N)(N4CCC5(CC4)CC5)C3)n2)sn1 [E39]
18 | < 10 nM | < 10 nM | Cc1cc(Nc2ncc(C)c(N3CC(CC#N)(N4CCN(C)C5(CC5)C4)C3)n2)sn1 [E38]
19 | < 1000 nM | < 1000 nM | Cc1cc(Nc2ncc(C)c(N3CC(CC#N)(N4CC5(CN(C)C5)C4)C3)n2)sn1 [E42]
20 | < 10 nM | < 10 nM | Cc1cc(Nc2ncc(C)c(N3CC(CC#N)(N4CCC(F)CC4)C3)n2)sn1 [E17]
21 | < 200 nM | < 200 nM | Cc1cnc(Nc2cnn(C)c2)nc1N1CC(O)(CC2CC2)C1 [E175-B]
22 | < 10 nM | < 10 nM | Cc1cnc(Nc2cnn(C)c2)nc1N1CC(CC#N)(N2CCn3cccc3C2)C1 [E164a]
23 | < 10 nM | < 10 nM | Cc1cnc(Nc2ccc3c(c2)CN(C)C3)nc1N1CC(CC#N)(N2CCCC3(C2)CC3(F)F)C1 (stereo not shown) [E111, 2-(3-(1,1-difluoro-5-azaspiro[2.5]octan-5-yl)-1-(5-methyl-2-((2-methylisoindolin-5-yl)amino)pyrimidin-4-yl)azetidin-3-yl)acetonitrile]
24 | < 10 nM | < 10 nM | Cc1cc(Nc2ncc(C)c(N3CC(CC#N)(N4CCN(C)C5CC54)C3)n2)sn1 (stereo not shown) [E94a]
25 | < 50 nM | < 50 nM | Cc1cc(Nc2ncc(C)c(N3CC(CC#N)(N4CCN5CCC[C@H]5C4)C3)n2)sn1 [E62a]
26 | < 10 nM | < 20 nM | Cc1cc(Nc2ncc(C)c(N3CC(CC#N)(N4CCN(C)C5(COC5)C4)C3)n2)sn1 [E46]

The remaining lines, values behind:

Row | Structure (SMILES) | IC50 [1] | IC50 [2]
27 | CCS(=O)(=O)C1CN(C2(CC#N)CN(c3nc(Nc4cc(C)ns4)ncc3C)C2)C1 [E96a] | < 50 nM | < 100 nM
28 | Cc1cc(Nc2nccc(N3CC(CC#N)(N4CCN5CC6(CC6)C[C@H]5C4)C3)n2)sn1 [E82a] | < 20 nM | < 50 nM
29 | Cc1cnc(Nc2cnn(C)c2)nc1N1CC(=CC#N)C1 [E174a] | < 200 nM | < 100 nM
30 | Cc1cc(Nc2ncc(C)c(N3CC(CCCl)(N4CCCCC4)C3)n2)sn1 [E113a] | < 10 nM | < 10 nM
31 | Cc1cc(Nc2ncc(C)c(N3CC(CC#N)(N4CC5NCCOC5C4)C3)n2)sn1 (stereo not shown) [E117-B] | < 100 nM | < 50 nM
32 | CCS(=O)(=O)NC1(CC#N)CN(c2nc(Nc3cc(C)ns3)ncc2C)C1 [E301] | < 20 nM | < 50 nM
33 | Cc1cc(Nc2ncc(C)c(N3CC(CC#N)(N4CCN5CC6(CC6)C[C@H]5C4)C3)n2)sn1 [E76a] | < 10 nM | < 10 nM
34 | Cc1cc(Nc2ncc(C)c(N3CC(CC#N)(N4CC5CC(C4)C5(F)F)C3)n2)sn1 [E31] | < 10 nM | < 10 nM
35 | Cc1cc(Nc2ncc(C)c(N3CC(CC#N)(N4CCC5(CC4)COC5)C3)n2)sn1 [E26] | < 10 nM | < 10 nM
36 | Cc1cc(Nc2ncc(C)c(N3CC(CC#N)(N4CCN5C[C@H](F)C[C@@H]5C4)C3)n2)sn1 [E75a] | < 10 nM | < 50 nM
37 | Cc1cc(Nc2ncc(C)c(N3CC(CC#N)(OC4CC5(CC5)C4)C3)n2)sn1 [E99a] | < 10 nM | < 10 nM
38 | Cc1cc(Nc2ncc(C)c(N3CC(CC#N)(CN4CCN5C[C@H](F)C[C@H]5C4)C3)n2)sn1 [E117-Y] | < 50 nM | < 100 nM
39 | Cc1cc(Nc2ncc(C)c(N3CC(CC#N)(N4CC5(C4)CC(F)(F)CO5)C3)n2)sn1 [E112a] | < 50 nM | < 50 nM
40 | Cc1cc(Nc2ncc(C)c(N3CC(CC#N)(N4CC5CC(C5)C4)C3)n2)sn1 [E19] | < 10 nM | < 10 nM
41 | Cc1cc(Nc2ncc(C)c(N3CC(C)(NC(=O)c4cccc(F)c4)C3)n2)sn1 [E309] | < 20 nM | < 10 nM
42 | COc1cnc(Nc2cc(C)ns2)nc1N1CC(CC#N)(N2CCN3C[C@H](F)C[C@H]3C2)C1 [E101a] | < 10 nM | < 10 nM
43 | CCS(=O)(=O)NC1(CC#N)CN(c2nc(N(c3cc(C)ns3)S(=O)(=O)CC)ncc2C)C1 [E302] | < 1000 nM | < 5000 nM
44 | Cn1cc(Nc2ncc(Cl)c(N3CC(CC#N)(N4CCN5C[C@H](F)C[C@H]5C4)C3)n2)cn1 [E163a] | < 10 nM | < 10 nM
45 | C#CCC1(O)CN(c2nc(Nc3cc(C)ns3)ncc2C)C1 [E63a] | < 50 nM | < 100 nM
46 | Cc1cc(Nc2ncc(C)c(N3CC4(C3)CC4(F)F)n2)sn1 [E117-P] | < 5 nM | < 10 nM
47 | Cc1cc(Nc2ncc(C)c(N3CC(CCF)(N4CCCCC4)C3)n2)sn1 [E116a] | < 10 nM | < 50 nM
48 | Cc1cnc(Nc2cnn(C)c2)nc1C1CC(C)(NC(=O)[C@@H]2CC2(F)F)C1 (stereo partly shown) [E279] | < 10 nM | < 5 nM
49 | Cc1cc(Nc2ncc(C)c(N3CC(CC#N)(N4CCC5C(CC4)C5(F)F)C3)n2)sn1 (stereo not shown) [E52E] | < 10 nM | < 10 nM
50 | Cc1cc(Nc2nccc(N3CC(CC#N)(N4CCN5C[C@H](F)C[C@H]5C4)C3)n2)sn1 [E97a] | < 10 nM | < 50 nM
